According to the NIST ThermoML archive (doi:10.1021/je800609u):
± gives the expanded uncertainty stated by the source.

Test: refractive index (Na D-line) (dimensionless); mn = molality of the nth substance listed, in mol/kg
Settings: 101 kPa, Liquid

CCCCn1cc[n+](C)c1.[I-] [1-butyl-3-methylimidazolium iodide] + O
refractive index
Settings | 298.15 K | 308.15 K | 318.15 K | 328.15 K
m1 = 0.0133 | 1.3331 ± 0.0006 | 1.3321 ± 0.0006 | 1.3305 ± 0.0006 | 1.3285 ± 0.0006
m1 = 0.0293 | 1.3336 ± 0.0006 | 1.3325 ± 0.0006 | 1.331 ± 0.0006 | 1.3289 ± 0.0006
m1 = 0.0442 | 1.3343 ± 0.0006 | 1.333 ± 0.0006 | 1.3316 ± 0.0006 | 1.3293 ± 0.0006
m1 = 0.0505 | 1.3346 ± 0.0006 | 1.3334 ± 0.0006 | 1.3317 ± 0.0006 | 1.3298 ± 0.0006
m1 = 0.0786 | 1.3356 ± 0.0006 | 1.3344 ± 0.0006 | 1.3328 ± 0.0006 | 1.331 ± 0.0006
m1 = 0.0995 | 1.3365 ± 0.0006 | 1.3353 ± 0.0006 | 1.3336 ± 0.0006 | 1.3315 ± 0.0006
m1 = 0.1307 | 1.3376 ± 0.0006 | 1.3363 ± 0.0006 | 1.3347 ± 0.0006 | 1.3329 ± 0.0006
m1 = 0.1782 | 1.3395 ± 0.0006 | 1.3381 ± 0.0006 | 1.3364 ± 0.0006 | 1.3347 ± 0.0006
m1 = 0.216 | 1.341 ± 0.0006 | 1.3397 ± 0.0006 | 1.338 ± 0.0006 | 1.3359 ± 0.0006
m1 = 0.3257 | 1.3449 ± 0.0006 | 1.3435 ± 0.0006 | 1.3418 ± 0.0006 | 1.3404 ± 0.0006
m1 = 0.4065 | 1.3478 ± 0.0006 | 1.3467 ± 0.0006 | 1.3447 ± 0.0006 | 1.3433 ± 0.0006
m1 = 0.5184 | 1.3519 ± 0.0006 | 1.3503 ± 0.0006 | 1.3487 ± 0.0006 | 1.3464 ± 0.0006
m1 = 0.6452 | 1.356 ± 0.0006 | 1.3548 ± 0.0006 | 1.3529 ± 0.0006 | 1.3507 ± 0.0006
m1 = 0.7509 | 1.3595 ± 0.0006 | 1.358 ± 0.0006 | 1.3561 ± 0.0006 | 1.3541 ± 0.0006
m1 = 0.8786 | 1.3635 ± 0.0006 | 1.362 ± 0.0006 | 1.36 ± 0.0006 | 1.3578 ± 0.0006
m1 = 1.154 | 1.3714 ± 0.0006 | 1.3701 ± 0.0006 | 1.368 ± 0.0006 | 1.3657 ± 0.0006
m1 = 1.837 | 1.3893 ± 0.0006 | 1.3876 ± 0.0006 | 1.3853 ± 0.0006 | 1.3831 ± 0.0006
m1 = 2.589 | 1.4054 ± 0.0006 | 1.4035 ± 0.0006 | 1.4012 ± 0.0006 | 1.3986 ± 0.0006
